Reference: patent US10233186B2, “Inhibitors of activin receptor-like kinase” (BLUEPRINT MEDICINES CORPORATION, priority 2016, dated 2019)
pIC50: −log10 of the molar value. Where two headings read alike, the source gives them in different places.

What was measured:
human ALK2 R206H = target: T1, human ALK2 R206H (Homo sapiens, UniProt Q04771, R206H); assay: Cell-based ALK2-R206H cell activity assay (Smad1-Ser463/Ser465 phosphorylation by AlphaLISA in HEK293-ALK2-R206H cells)
T1 construct: expressed in transfected cells; host or cells: HEK293 (ATCC CRL1573), lentivirus transduction, blasticidin selection
T1 sequence (Q04771 21-509 R206H): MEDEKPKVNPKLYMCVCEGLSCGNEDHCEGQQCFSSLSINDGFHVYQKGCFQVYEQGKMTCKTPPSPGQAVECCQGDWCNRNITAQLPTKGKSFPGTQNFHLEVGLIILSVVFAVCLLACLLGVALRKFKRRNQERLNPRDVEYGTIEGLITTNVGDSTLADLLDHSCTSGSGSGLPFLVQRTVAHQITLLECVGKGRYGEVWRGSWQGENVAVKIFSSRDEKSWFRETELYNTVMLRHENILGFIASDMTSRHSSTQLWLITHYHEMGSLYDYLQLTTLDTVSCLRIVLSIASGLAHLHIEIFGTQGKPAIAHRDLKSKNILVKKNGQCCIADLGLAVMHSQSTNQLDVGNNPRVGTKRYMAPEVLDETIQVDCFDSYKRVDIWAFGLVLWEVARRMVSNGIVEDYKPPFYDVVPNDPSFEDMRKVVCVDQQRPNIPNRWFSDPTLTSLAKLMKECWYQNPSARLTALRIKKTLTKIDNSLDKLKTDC
In short: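 Stable HEK293 cells expressing C-terminally FLAG-tagged human ALK2 R206H (lentiviral, blasticidin-selected) were treated with compounds in 10-point, 3-fold dilutions from 10 μM or 1 μM top, in duplicate. Smad1 Ser463/Ser465 phosphorylation was read by AlphaLISA.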

[1] = target: T2, ALK2 R206H (GST-tagged mutant ALK2) (Homo sapiens, UniProt Q04771, R206H); assay: ALK binding assay (LANTHASCREEN TR-FRET competitive binding, displacement of Kinase Tracer 178)
T2 construct: purchased Carna Bioscience or ThermoFisher 09-148 or PV6232
T2 sequence (Q04771 21-509 R206H): T1 sequence (Q04771 21-509 R206H)

[2] = read-out: Cell Line (Cell Assay IC50)
[3] = ALK2 R206H, LANTHASCREEN TR-FRET competitive binding, read-out: Binding Assay (IC50)

| Structure (SMILES) | pIC50 (human ALK2 R206H; [2]) | pIC50 [1, 3] | pIC50 (human ALK2 R206H; Cell Line (Cell Assay IC50)) | pIC50 [1] |
| --- | --- | --- | --- | --- |
| CC(C)N1CCC[C@@H](c2ccc(-c3cc4c(N5CCN(C(=O)OC6(C#N)COC6)CC5)ccnn4c3)cc2)C1 [Compound 840] | 6.30 to 7.00 | > 8.00 | – | – |
| O=C(OC1COC1)N1CCN(c2ccnn3cc(-c4ccc(C5(C(F)(F)F)CCNCC5)cc4)cc23)CC1 [Compound 843] | > 7.00 | > 8.00 | – | – |
| COC1(c2ccc(-c3cc4c(N5CCN(C(=O)NC(C)C)CC5)ccnn4c3)cc2)CCN(C2COC2)CC1 [Compound 844] | > 7.00 | > 8.00 | – | – |
| CCOC(=O)N1CCN(c2ccnn3cc(-c4ccc(C5(OCC)CCN(C6COC6)CC5)cn4)cc23)CC1 [Compound 845] | > 7.00 | > 8.00 | – | – |
| COC1(c2ccc(-c3cc4c(N5CCN(C(=O)OC6COC6)CC5)ccnn4c3)nc2)CCN(C(C)C)CC1 [Compound 846] | > 7.00 | > 8.00 | – | – |
| CC(C)N1CCC(c2ccc(-c3cc4c(N5CCN(C(=O)OC(CO)C(=O)O)CC5)ccnn4c3)cc2)CC1 (stereo not drawn) [Compound 847, 3-hydroxy-2-(4-(6-(4-(1-isopropylpiperidin-4-yl)phenyl)pyrrolo[1,2-b]pyridazin-4-yl)piperazine-1-carbonyloxy)propanoic acid] | < 6.30 | > 8.00 | – | – |
| CC(C)N1CC[C@H](OC(F)F)[C@@H](c2ccc(-c3cc4c(N5CCN(C(=O)C6CC6)CC5)ccnn4c3)cc2)C1 [Compound 848] | > 7.00 | > 8.00 | – | – |
| CC(C)N1CC[C@@H](OC(F)F)[C@H](c2ccc(-c3cc4c(N5CCN(C(=O)C6CC6)CC5)ccnn4c3)cc2)C1 [Compound 849] | > 7.00 | > 8.00 | – | – |
| COC1(c2ccc(-c3cc4c(N5CCN(C(=O)NC(C)C)CC5)ccnn4c3)nc2)CCN(C(C)CF)CC1 (stereo not drawn) [Compound 850] | > 7.00 | > 8.00 | – | – |
| CC(C)N1CCC(c2ccc(-c3cc4c(N5CCN(C(=O)Nc6ccccc6F)CC5)ccnn4c3)cc2)CC1 [Compound 851] | 6.30 to 7.00 | > 8.00 | – | – |
| COC1(c2ccc(-c3cc4c(N5CCN(C(=O)NC(C)C)CC5)ccnn4c3)c(C#N)c2)CCN(C(C)C)CC1 [Compound 852] | > 7.00 | > 8.00 | – | – |
| CC(=O)N1CC(OC(=O)N2CCN(c3ccnn4cc(-c5ccc([C@@H]6CCCN(C(C)C)C6)cc5)cc34)CC2)C1 [Compound 853] | 6.30 to 7.00 | > 8.00 | – | – |
| CCOC1(c2ccc(-c3cc4c(N5CCN(C(=O)OCCC#N)CC5)ccnn4c3)nc2)CCN(C(C)C)CC1 [Compound 854] | > 7.00 | > 8.00 | – | – |
| CCOC1(c2ccc(-c3cc4c(N5CCN(C(=O)OC6COC6)CC5)ccnn4c3)nc2)CCN(C2CC2)CC1 [Compound 855] | > 7.00 | > 8.00 | – | – |
| CCOC1(c2ccc(-c3cc4c(N5CCN(C(=O)NC(C)C)CC5)ccnn4c3)cc2)CCN(C2COC2)CC1 [Compound 856] | > 7.00 | > 8.00 | – | – |
| CCOC1(c2ccc(-c3cc4c(N5CCN(C(=O)OC6COC6)CC5)ccnn4c3)cc2)CCN(C(C)C)CC1 [Compound 857] | > 7.00 | > 8.00 | – | – |
| CCOC1(c2ccc(-c3cc4c(N5CCN(C(=O)NC(C)C)CC5)ccnn4c3)nc2)CCN(C2COC2)CC1 [Compound 858] | > 7.00 | > 8.00 | – | – |
| CC(C)N1CCC(COC(F)F)(c2ccc(-c3cc4c(N5CCN(C(=O)C6CC6)CC5)ccnn4c3)cc2)CC1 [Compound 859] | > 7.00 | > 8.00 | – | – |
| CCOC1(c2ccc(-c3cc4c(N5CCN(C(=O)NC(C)C)CC5)ccnn4c3)nc2)CCN(C(C)CF)CC1 (stereo not drawn) [Compound 860] | > 7.00 | > 8.00 | – | – |
| CCOC1(c2ccc(-c3cc4c(N5CCN(C(=O)NC(C)C)CC5)ccnn4c3)nc2)CCN(C[C@H](C)F)CC1 [Compound 861] | > 7.00 | > 8.00 | – | – |
| COC1(c2ccc(-c3cc4c(N5CCN(C(=O)OC6COC6)CC5)ccnn4c3)nc2)CCN(C(C)CF)CC1 (stereo not drawn) [Compound 863] | > 7.00 | > 8.00 | – | – |
| CCOC1(c2ccc(-c3cc4c(N5CCN(C(=O)O[C@H](C)CF)CC5)ccnn4c3)nc2)CCN(C(C)C)CC1 [Compound 864] | > 7.00 | > 8.00 | – | – |
| CCOC1(c2ccc(-c3cc4c(N5CCN(C(=O)OC[C@H](C)F)CC5)ccnn4c3)nc2)CCN(C(C)C)CC1 [Compound 865] | > 7.00 | > 8.00 | – | – |
| CCOC1(c2ccc(-c3cc4c(N5CCN(C(=O)OC[C@@H](C)F)CC5)ccnn4c3)nc2)CCN(C(C)C)CC1 [Compound 867] | > 7.00 | > 8.00 | – | – |

| Structure (SMILES) | pIC50 (human ALK2 R206H; [2]) | pIC50 [1, 3] | pIC50 (human ALK2 R206H; Cell Line (Cell Assay IC50)) | pIC50 [1] |
| --- | --- | --- | --- | --- |
| CC(C)NC(=O)N1CCN(c2ccnn3cc(-c4ccc([C@H]5CN(C(C)C)CC[C@@H]5OC(F)F)cc4)cc23)CC1 [Compound 868] | > 7.00 | > 8.00 | – | – |
| CC(C)NC(=O)N1CCN(c2ccnn3cc(-c4ccc([C@@H]5CN(C(C)C)CC[C@H]5OC(F)F)cc4)cc23)CC1 [Compound 869] | > 7.00 | > 8.00 | – | – |
| COC1(c2ccc(-c3cc4c(N5CCN(C(=O)[C@H]6C[C@H](C#N)C6)CC5)ccnn4c3)nc2)CCN(C2COC2)CC1 [Compound 870] | > 7.00 | > 8.00 | – | – |
| CCOC1(c2ccc(-c3cc4c(N5CCN(C(=O)[C@H]6C[C@H](C#N)C6)CC5)ccnn4c3)nc2)CCN(C(C)C)CC1 [Compound 871] | > 7.00 | > 8.00 | – | – |
| CCOC1(c2ccc(-c3cc4c(N5CCN(C(=O)OCC(F)F)CC5)ccnn4c3)nc2)CCN(C(C)C)CC1 [Compound 872] | > 7.00 | > 8.00 | – | – |
| COC1(c2ccc(-c3cc4c(N5CCN(C(=O)OC6COC6)CC5)ccnn4c3)c(C#N)c2)CCN(C(C)C)CC1 [Compound 873] | > 7.00 | > 8.00 | – | – |
| COC(=O)C1(c2ccc(-c3cc4c(N5CCN(C(=O)OC6COC6)CC5)ccnn4c3)cc2)CCN(C(C)C)CC1 [Compound 874] | – | – | 6.30 to 7.00 | > 8.00 |
| CCOC1(c2ccc(-c3cc4c(N5CCN(C(=O)OC6COC6)CC5)ccnn4c3)nc2)CCN(C2COC2)CC1 [Compound 875] | > 7.00 | > 8.00 | – | – |
| CCOC1(c2ccc(-c3cc4c(N5CCN(C(=O)O[C@@H]6CCOC6)CC5)ccnn4c3)nc2)CCN(C(C)C)CC1 [Compound 876] | > 7.00 | > 8.00 | – | – |
| CCOC1(c2ccc(-c3cc4c(N5CCN(C(=O)O[C@H]6CCOC6)CC5)ccnn4c3)nc2)CCN(C(C)C)CC1 [Compound 877] | > 7.00 | > 8.00 | – | – |
| CCOC1(c2ccc(-c3cc4c(N5CCN(C(=O)OC6(C)COC6)CC5)ccnn4c3)nc2)CCN(C(C)C)CC1 [Compound 878] | > 7.00 | > 8.00 | – | – |
| CCOC1(c2ccc(-c3cc4c(N5CCN(C(=O)OC6COC6C)CC5)ccnn4c3)nc2)CCN(C(C)C)CC1 (stereo not drawn) [Compound 879] | > 7.00 | > 8.00 | – | – |
| CCOC1(c2ccc(-c3cc4c(N5CCN(C(=O)OC6COC6)CC5)ccnn4c3)nc2)CCN(CC(C)F)CC1 (stereo not drawn) [Compound 880] | > 7.00 | > 8.00 | – | – |
| CCOC1(c2ccc(-c3cc4c(N5CCN(C(=O)OC6COC6)CC5)ccnn4c3)nc2)CCN(C[C@H](C)F)CC1 [Compound 882] | > 7.00 | > 8.00 | – | – |
| COC1(c2ccc(-c3cc4c(N5CCN(C(=O)C6CC6)CC5)ccnn4c3)cc2)CCN([C@@H](C)COC(F)F)CC1 [Compound 883] | > 7.00 | > 8.00 | – | – |
| COC1(c2ccc(-c3cc4c(N5CCN(C(=O)C6CC6)CC5)ccnn4c3)cc2)CCN([C@H](C)COC(F)F)CC1 [Compound 884] | > 7.00 | > 8.00 | – | – |
| COC1(c2ccc(-c3cc4c(N5CCN(C(=O)C6CC6)CC5)ccnn4c3)nc2)CCN([C@H](C)COC(F)F)CC1 [Compound 885] | > 7.00 | > 8.00 | – | – |
| COC1(c2ccc(-c3cc4c(N5CCN(C(=O)C6CC6)CC5)ccnn4c3)nc2)CCN([C@@H](C)COC(F)F)CC1 [Compound 886] | > 7.00 | > 8.00 | – | – |
| CC(C)NC(=O)N1CCN(c2ccnn3cc(-c4ccc(C5(COC(F)F)CCN(C(C)C)CC5)cc4)cc23)CC1 [Compound 887] | > 7.00 | > 8.00 | – | – |
| CC(C)N1CC[C@H](OC(F)F)[C@@H](c2ccc(-c3cc4c(N5CCN(C(=O)OC6COC6)CC5)ccnn4c3)cc2)C1 [Compound 888] | > 7.00 | > 8.00 | – | – |
| CC(C)N1CC[C@@H](OC(F)F)[C@H](c2ccc(-c3cc4c(N5CCN(C(=O)OC6COC6)CC5)ccnn4c3)cc2)C1 [Compound 889] | > 7.00 | > 8.00 | – | – |
| CCOC1(c2ccc(-c3cc4c(N5CCN(C(=O)[C@H]6C[C@H](C#N)C6)CC5)ccnn4c3)nc2)CCN(C2COC2)CC1 [Compound 890] | > 7.00 | > 8.00 | – | – |
| CC(C)N1CCC(COC(F)F)(c2ccc(-c3cc4c(N5CCN(C(=O)OC6COC6)CC5)ccnn4c3)cc2)CC1 [Compound 891] | > 7.00 | > 8.00 | – | – |
| COC1(c2ccc(-c3cc4c(N5CCN(C(=O)NC(C)C)CC5)ccnn4c3)cc2)CCN([C@@H](C)COC(F)F)CC1 [Compound 892] | > 7.00 | > 8.00 | – | – |
